{"source": "paper PMC10882974", "about": "(Environmental Science & Technology, 2024)", "key": {"E. coli OP50": {"test_system": "E. coli OP50", "assay": "uptake and metabolism of fluoxetine in E. coli OP50 and medium", "design": "species or system Escherichia coli", "conditions": "10 mg/L fluoxetine, E. coli OD600 1.0"}, "C. elegans [1]": {"test_system": "C. elegans", "assay": "general activity test (WMicrotracker)", "assay_type": "in vivo, Caenorhabditis elegans", "protocol": "Two quadrants were spiked with 2 μL of an attractant (0.5% diacetyl), and two contained 2 μL water as a control.[30] After 45 min, during which the worms could move freely, the dish was moved to 4 °C to immobilize the worms, and the number of worms in each quadrant was counted. The general activity was measured with a WMicrotracker from Phylumtech. This system measured the collective movement in multiwell plates by detecting the number of interruptions of an infrared beam over time. The total number of interruptions over a 30 min period was calculated with the Wmicrotracker software. […] For all data points, the mean and standard deviation were plotted using Graphpad Prism 9.4. The ordinary differential equations and parameters fitted in Matlab were also entered in Graphpad Prism to simulate the internal concentrations over time."}, "[2]": {"assay": "toxicokinetics experiment I: elimination after 1 h exposure", "assay_type": "in vivo, Caenorhabditis elegans", "conditions": "whole organism (worm homogenate)", "protocol": "(§1) In between cycles, the samples were kept on ice. […] Samples were stored at −20 °C until further analysis.\n(§2) All parameters and units are summarized in SI A3."}, "C. elegans [3]": {"test_system": "C. elegans", "assay": "toxicokinetics experiment I: elimination after 1 h exposure", "assay_type": "in vivo, Caenorhabditis elegans", "conditions": "after 1 h exposure; no E. coli", "protocol": "as §1, §2"}, "[4]": {"assay": "toxicokinetics experiment III: effect of E. coli on uptake", "assay_type": "in vivo, Caenorhabditis elegans", "conditions": "10 mg/L, exp III, 10 mg/L fluoxetine, 10 h, read-out: k2NF elimination rate constant of norfluoxetine (converted)", "protocol": "as §1, §2"}, "C. elegans [5]": {"test_system": "C. elegans", "assay": "toxicokinetics experiment III: effect of E. coli on uptake", "assay_type": "in vivo, Caenorhabditis elegans", "conditions": "Figure 4B-D (experiments III and IV)", "protocol": "as §1, §2"}, "[6]": {"assay": "toxicokinetics experiment IV: long-term exposure of L4 and adult worms", "conditions": "whole organism (worm homogenate), iv, 20 mg/L, k2NF elimination rate constant of norfluoxetine, exp IV, with E. coli, 20 mg/L fluoxetine, 48 h", "protocol": "(§3) Three replicates of 1500 pooled C. elegans were used for each time point for each concentration. For experiments with E. coli, the OD600 was kept constant at 0.4.\n(§4) C. elegans containing pellets were resuspended in 500 μL of methanol, and 0.6 g of […] ceramic beads (1.4 mm) were added to the vial. The samples were homogenized three times for 20 s using a Minilys homogenizer (Bertin Technologies) at middle speed. In between cycles, the samples were kept on ice. […] The supernatant was transferred to a glass tube, the pellet (including the ceramic beads) was resuspended in 500 μL of methanol, and the homogenization, sonication, and centrifugation cycle was repeated twice more to result in a three-step extraction. The total combined supernatant was concentrated to dryness under a gentle nitrogen stream and redissolved in 500 μL of methanol to a final concentration of the IS of 1 μM. Samples were stored at −20 °C until further analysis.\n(§5) A one-compartment model was selected since chemical concentrations could only be measured for the whole organism. […] All parameters and units are summarized in SI A3.\n(§6) The kinetic bioconcentration factor[33] was calculated with eq 3, and the ke and kt were only included when applicable to the respective experiment [drawing 4] 3\n(§7) Model fitting was performed by adding the ordinary differential equations to the BYOM modeling package version 6.3 (http://www.debtox.info/byom.html) in Matlab R2022b.[34] […] Optimization was performed with the Melder–Mead Simplex Search method, minimizing the minus log-likelihood. […] Model script deviations from the BYOM model can be found in SI A9."}, "C. elegans [7]": {"test_system": "C. elegans", "assay": "toxicokinetics experiment IV: long-term exposure of L4 and adult worms", "conditions": "20 mg/L fluoxetine", "protocol": "as §3, §4, §5, §6, §7"}, "C. elegans [8]": {"test_system": "C. elegans", "assay": "calculated excretion rate of norfluoxetine from exposure medium concentrations (experiments III and IV, SI A6)", "assay_type": "in vivo, Caenorhabditis elegans", "text": "Norfluoxetine was also detected in the exposure medium for experiments III and IV and increased over time, indicating the elimination of norfluoxetine. […] However, this does allow for a calculation of the excretion rate of norfluoxetine, as shown in SI A6. […] This could be explained by the saturation of binding sites for norfluoxetine at these higher concentrations, but this still requires further investigation."}, "C. elegans [9]": {"test_system": "C. elegans", "assay": "norfluoxetine uptake and coexposure with fluoxetine (SI A5)", "assay_type": "in vivo, Caenorhabditis elegans", "conditions": "same exposure concentration; SI A5, Figure S9", "description": "Alternatively, there could be a concentration-dependent increase in metabolism over time resulting from enzyme induction. This was modeled with an extra metabolism rate constant ke that was included after 10 h (eq 1a and Figure 4C,D)."}, "C. elegans [10]": {"test_system": "C. elegans", "assay": "chemotaxis assay (diacetyl attractant)", "assay_type": "in vivo, Caenorhabditis elegans", "protocol": "Two quadrants were spiked with 2 μL of an attractant (0.5% diacetyl), and two contained 2 μL water as a control.[30] After 45 min, during which the worms could move freely, the dish was moved to 4 °C to immobilize the worms, and the number of worms in each quadrant was counted. For all data points, the mean and standard deviation were plotted using Graphpad Prism 9.4. The ordinary differential equations and parameters fitted in Matlab were also entered in Graphpad Prism to simulate the internal concentrations over time."}, "[11]": {"conditions": "at 10 mg/L, p < 0.01 Bonferroni post hoc"}}, "data": [{"smiles": "NCCC(Oc1ccc(C(F)(F)F)cc1)c1ccccc1", "note": "(stereo not drawn) [norfluoxetine]", "values": [{"measurement": "norfluoxetine concentrations in medium and bacteria exposed to fluoxetine", "setting": "E. coli OP50", "result": "negligible"}, {"measurement": "activity compared to fluoxetine", "setting": "C. elegans [1]; [11]", "result": "significantly lower"}, {"measurement": "EC50", "setting": "C. elegans [1]; nominal concentrations, S medium with E. coli OD600 0.4, 24 h exposure, read-out: EC50 for the effect on activity (+95% confidence intervals)", "result": 10.1, "unit": "µg/mL"}, {"measurement": "k el", "setting": "[2]; 1 h exposure (fluoxetine 0.5, 5, 20 mg/L; norfluoxetine 20 mg/L), then clean medium, no E. coli, read-out: k2sum elimination rate constant (+95% CI) (converted)", "result": 0.000375, "unit": "s⁻¹"}, {"measurement": "k el", "setting": "[2]; 1 h exposure, then clean medium, slow phase after 1 h, no E. coli, read-out: k2slow elimination rate constant (+95% CI) (converted)", "result": "2.36e-05", "unit": "s⁻¹"}, {"measurement": "k el", "setting": "[2]; calculated from k2sum and k2slow, read-out: k2fast elimination rate constant (converted)", "result": 0.000351, "unit": "s⁻¹"}, {"measurement": "elimination over time after transfer to clean medium", "setting": "C. elegans [3]", "result": "still present in small amounts after 24 h"}, {"measurement": "k el", "setting": "[4]; whole organism (homogenate of pooled worms), no E. coli", "result": "2.78e-08", "unit": "s⁻¹"}, {"measurement": "k el", "setting": "[4]; whole organism (worm homogenate), with E. coli, k1, k2FLX, k2NF, kt constrained (eq 1b)", "result": "2.78e-08", "unit": "s⁻¹"}, {"measurement": "k el", "setting": "[4]; whole organism (worm homogenate), with E. coli, no constraint", "result": "3.33e-05", "unit": "s⁻¹"}, {"measurement": "elimination rate (k2NF)", "setting": "C. elegans [5]", "result": "around 0.12 /h"}, {"measurement": "transformation rate kt (norfluoxetine formation)", "setting": "C. elegans [5]", "result": "around 0.06 1/h"}, {"measurement": "k el", "setting": "[6]", "result": "3.06e-05", "unit": "s⁻¹"}, {"measurement": "norfluoxetine internal concentration relative to fluoxetine at steady state", "setting": "C. elegans [7]; Figure 4D", "result": "around half of the fluoxetine concentrations"}, {"measurement": "norfluoxetine internal concentration at steady state", "setting": "C. elegans [7]; steady state after 10 h", "result": "approximately 80 mg/kgnem"}, {"measurement": "calculated excretion rate of norfluoxetine", "setting": "C. elegans [8]; 20 mg/L of fluoxetine exposure", "result": "around 0.5 /h"}, {"measurement": "calculated excretion rate of norfluoxetine, increased value", "setting": "C. elegans [8]; 20 mg/L of fluoxetine exposure, value it increased to", "result": 0.83}, {"measurement": "calculated excretion rate of norfluoxetine", "setting": "C. elegans [8]; 0.5 and 10 mg/L of fluoxetine", "result": "around 0.1 /h"}, {"measurement": "internal concentrations of norfluoxetine compared to fluoxetine", "setting": "C. elegans [9]", "result": "around 70%"}, {"measurement": "chemotaxis index compared to fluoxetine", "setting": "C. elegans [10]; [11]", "result": "significantly lower"}, {"measurement": "EC50", "setting": "C. elegans [10]; nominal concentrations, 72 h exposure from L1, S medium with E. coli OD600 0.4, read-out: EC50 for chemotaxis (+95% confidence intervals)", "result": 14.2, "unit": "µg/mL"}]}]}
